Experiments:
Assay in all cases: KINOMEscan competitive binding
YSK1 = target: T1, YSK1 (Homo sapiens, UniProt O00506); settings: n=1, read-out: Percent inhibition, YSK1
T1 construct: purchased DiscoverX (KINOMEscan)

PRKG1 = target: T2, PRKG1 (Homo sapiens, UniProt Q13976); settings: n=1, read-out: Percent inhibition, PRKG1
T2 construct: purchased DiscoverX (KINOMEscan)
T2 sequence (Q13976 1-671): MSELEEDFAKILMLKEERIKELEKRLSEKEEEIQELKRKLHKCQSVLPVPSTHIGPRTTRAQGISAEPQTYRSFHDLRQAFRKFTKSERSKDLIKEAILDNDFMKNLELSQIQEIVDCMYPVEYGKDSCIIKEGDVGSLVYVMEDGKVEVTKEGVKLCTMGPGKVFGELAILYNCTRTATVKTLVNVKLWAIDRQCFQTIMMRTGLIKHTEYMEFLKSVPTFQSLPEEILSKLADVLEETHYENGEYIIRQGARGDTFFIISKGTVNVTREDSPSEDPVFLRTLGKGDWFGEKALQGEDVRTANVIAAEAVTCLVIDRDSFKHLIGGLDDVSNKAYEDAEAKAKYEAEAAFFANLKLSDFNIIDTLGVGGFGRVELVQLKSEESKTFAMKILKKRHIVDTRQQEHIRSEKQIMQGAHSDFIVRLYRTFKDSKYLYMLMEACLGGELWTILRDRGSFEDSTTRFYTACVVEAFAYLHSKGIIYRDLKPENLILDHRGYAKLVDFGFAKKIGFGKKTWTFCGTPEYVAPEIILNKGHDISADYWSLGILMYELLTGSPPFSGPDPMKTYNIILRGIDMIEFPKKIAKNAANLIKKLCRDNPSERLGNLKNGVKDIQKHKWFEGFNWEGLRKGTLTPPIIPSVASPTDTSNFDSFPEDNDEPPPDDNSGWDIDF

PKAC-beta = target: T3, PKAC-beta (Homo sapiens, UniProt P22694); settings: n=1, read-out: Percent inhibition, PKAC-beta
T3 construct: purchased DiscoverX (KINOMEscan)

PKAC-alpha = target: T4, PKAC-alpha (Homo sapiens, UniProt P17612); settings: n=1, read-out: Percent inhibition, PKAC-alpha
T4 construct: purchased DiscoverX (KINOMEscan)

JAK kinase domains = target: T5, JAK kinase domains (Homo sapiens, UniProt O60674); settings: 10 µM, n=1; kinase JAK2(Kin.Dom.2); read-out: Percent inhibition JAK2(Kin.Dom.2)
T5 construct: purchased DiscoverX (KINOMEscan)
T5 sequence (O60674 840-1132): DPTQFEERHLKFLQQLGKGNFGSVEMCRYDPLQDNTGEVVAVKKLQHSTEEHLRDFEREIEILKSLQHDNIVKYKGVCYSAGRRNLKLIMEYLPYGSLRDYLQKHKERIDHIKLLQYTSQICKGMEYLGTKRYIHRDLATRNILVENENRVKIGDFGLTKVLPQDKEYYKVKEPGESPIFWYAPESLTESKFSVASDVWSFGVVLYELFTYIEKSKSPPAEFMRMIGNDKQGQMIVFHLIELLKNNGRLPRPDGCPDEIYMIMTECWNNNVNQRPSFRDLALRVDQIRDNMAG
Text: The kinases were expressed as fusions to T7 bacteriophage. This is a sensitive, competitive binding assay where test compounds were used to displace immobilized ATP-site binding probe ligands from kinases of interest. The amount of kinase that remained bound to the immobilized probe ligands on the solid support was quantified. Percentage inhibition data were was plotted on kinome trees using the web-based tool KinMap (http://www.kinhub.org/kinmap) ([60]).

TYRO3 = target: T6, TYRO3 (Homo sapiens, UniProt Q06418); settings: n=1, read-out: Percent inhibition, TYRO3
T6 construct: purchased DiscoverX (KINOMEscan)
T6 sequence (Q06418 41-890): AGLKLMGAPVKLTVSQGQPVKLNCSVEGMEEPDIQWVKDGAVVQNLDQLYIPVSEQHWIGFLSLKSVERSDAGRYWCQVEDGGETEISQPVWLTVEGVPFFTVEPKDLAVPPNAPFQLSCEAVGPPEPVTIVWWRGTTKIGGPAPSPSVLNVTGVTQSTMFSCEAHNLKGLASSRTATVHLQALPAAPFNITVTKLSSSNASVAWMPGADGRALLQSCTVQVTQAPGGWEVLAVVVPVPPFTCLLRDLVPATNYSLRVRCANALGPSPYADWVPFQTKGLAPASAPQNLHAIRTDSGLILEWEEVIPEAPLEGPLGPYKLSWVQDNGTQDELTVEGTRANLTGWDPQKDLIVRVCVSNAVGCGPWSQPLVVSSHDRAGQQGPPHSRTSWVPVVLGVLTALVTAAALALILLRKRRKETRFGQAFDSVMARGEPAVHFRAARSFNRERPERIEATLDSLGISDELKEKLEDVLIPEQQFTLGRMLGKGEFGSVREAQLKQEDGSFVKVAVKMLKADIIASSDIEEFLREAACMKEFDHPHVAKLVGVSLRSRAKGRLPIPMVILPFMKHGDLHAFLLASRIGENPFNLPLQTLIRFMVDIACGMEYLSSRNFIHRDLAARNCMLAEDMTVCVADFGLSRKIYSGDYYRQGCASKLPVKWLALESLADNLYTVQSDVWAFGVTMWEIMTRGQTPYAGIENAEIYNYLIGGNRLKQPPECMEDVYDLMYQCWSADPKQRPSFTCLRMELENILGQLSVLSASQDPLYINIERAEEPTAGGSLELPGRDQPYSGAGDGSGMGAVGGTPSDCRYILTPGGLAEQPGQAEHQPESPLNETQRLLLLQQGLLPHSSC

ULK3(mouse) = target: T7, ULK3(mouse) (Mus musculus, UniProt Q3U3Q1); settings: n=1, read-out: Percent inhibition, ULK3(mouse)
T7 construct: purchased DiscoverX (KINOMEscan)
T7 sequence (Q3U3Q1 1-472): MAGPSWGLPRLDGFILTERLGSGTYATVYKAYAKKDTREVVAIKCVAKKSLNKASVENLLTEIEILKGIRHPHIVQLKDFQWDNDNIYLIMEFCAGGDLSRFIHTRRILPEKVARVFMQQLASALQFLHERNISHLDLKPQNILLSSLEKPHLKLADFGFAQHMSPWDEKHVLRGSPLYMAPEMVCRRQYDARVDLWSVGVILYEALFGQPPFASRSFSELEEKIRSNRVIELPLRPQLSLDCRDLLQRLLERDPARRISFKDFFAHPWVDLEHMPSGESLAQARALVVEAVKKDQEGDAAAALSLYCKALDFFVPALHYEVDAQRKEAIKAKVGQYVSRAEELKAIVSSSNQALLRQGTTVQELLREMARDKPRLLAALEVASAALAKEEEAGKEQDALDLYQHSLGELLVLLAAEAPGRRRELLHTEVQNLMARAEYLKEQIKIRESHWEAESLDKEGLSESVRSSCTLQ

PAK7/PAK5 = target: T8, PAK7/PAK5 (Homo sapiens, UniProt Q9P286); settings: n=1, read-out: Percent inhibition, PAK7/PAK5
T8 construct: purchased DiscoverX (KINOMEscan)
T8 sequence (Q9P286 whole entry): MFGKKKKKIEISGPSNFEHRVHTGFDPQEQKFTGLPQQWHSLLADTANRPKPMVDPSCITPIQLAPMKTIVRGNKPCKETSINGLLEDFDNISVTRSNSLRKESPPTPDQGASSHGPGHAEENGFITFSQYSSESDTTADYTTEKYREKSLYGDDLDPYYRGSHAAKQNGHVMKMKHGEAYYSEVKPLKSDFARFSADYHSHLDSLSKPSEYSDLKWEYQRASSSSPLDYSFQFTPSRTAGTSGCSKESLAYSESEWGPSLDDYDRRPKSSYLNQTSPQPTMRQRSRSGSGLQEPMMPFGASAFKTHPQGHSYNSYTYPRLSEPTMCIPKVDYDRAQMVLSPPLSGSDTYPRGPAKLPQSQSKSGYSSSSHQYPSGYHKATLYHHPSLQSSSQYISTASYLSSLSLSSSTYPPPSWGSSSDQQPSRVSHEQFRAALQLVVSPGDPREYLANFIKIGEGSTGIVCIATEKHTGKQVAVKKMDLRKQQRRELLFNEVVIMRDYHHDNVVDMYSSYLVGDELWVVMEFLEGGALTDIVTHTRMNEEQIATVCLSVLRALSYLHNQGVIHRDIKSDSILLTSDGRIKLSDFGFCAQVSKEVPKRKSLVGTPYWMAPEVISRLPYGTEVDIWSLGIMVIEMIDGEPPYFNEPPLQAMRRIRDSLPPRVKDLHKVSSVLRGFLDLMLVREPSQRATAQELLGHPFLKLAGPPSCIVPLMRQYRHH

T1 sequence (O00506 whole entry): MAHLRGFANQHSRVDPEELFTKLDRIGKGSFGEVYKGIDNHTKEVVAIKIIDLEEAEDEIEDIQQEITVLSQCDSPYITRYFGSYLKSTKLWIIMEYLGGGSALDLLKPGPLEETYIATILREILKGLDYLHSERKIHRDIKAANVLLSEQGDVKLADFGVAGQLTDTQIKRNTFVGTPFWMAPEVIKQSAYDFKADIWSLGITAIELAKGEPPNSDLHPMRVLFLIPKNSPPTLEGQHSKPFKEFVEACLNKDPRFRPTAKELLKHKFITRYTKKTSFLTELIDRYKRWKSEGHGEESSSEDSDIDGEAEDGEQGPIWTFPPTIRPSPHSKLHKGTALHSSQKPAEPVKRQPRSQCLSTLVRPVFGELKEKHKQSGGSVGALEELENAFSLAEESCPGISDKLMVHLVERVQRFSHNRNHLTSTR

| Compound | inhibition at 10 µM (YSK1) [%] | inhibition at 10 µM (PRKG1) [%] | inhibition at 10 µM (PKAC-beta) [%] | inhibition at 10 µM (PKAC-alpha) [%] | inhibition at 10 µM (JAK kinase domains) [%] | inhibition at 10 µM (TYRO3) [%] | inhibition at 10 µM (ULK3(mouse)) [%] | inhibition at 10 µM (PAK7/PAK5) [%] |
| --- | --- | --- | --- | --- | --- | --- | --- | --- |
| CN1CCN(c2ccc(Nc3nccc(-c4cnn5ncccc45)n3)cc2C#N)CC1 [Compound 1] | 90.8 | 0 | 0 | 0 | 86.8 | 70.2 | 97.1 | 99.2 |
| COc1ccc(Nc2nccc(-c3cnn4ncccc34)n2)cc1 [Compound 2] | 0 | 0 | 0 | 0 | 89.7 | 0 | 92.5 | 72.8 |
| Cc1ccc(O)cc1Nc1ccnc(Nc2cccc(C(N)=O)c2)n1 [Compound 3] | 0 | 0 | 0 | 0 | 80.6 | 100 | 91.5 | 67.6 |
| Cc1ccc(O)cc1N(C)c1ccnc(Nc2cccc(S(N)(=O)=O)c2)n1 [Compound 4] | 0 | 0 | 77.8 | 68.9 | 90.7 | 100 | 98.8 | 98.5 |
| Fc1cccc(COc2ccc(Nc3ncnc4c3CN(CCN3CCOCC3)CC4)cc2Cl)c1 [Compound 6] | 0 | 0 | 0 | 0 | 0 | 0 | 0 | 0 |
| COc1cc(Nc2nccc(-c3sc(N)nc3-c3cccc(NC(=O)c4c(F)cccc4F)c3)n2)cc(OC)c1OC [Compound 7] | 96.3 | 0 | 0 | 0 | 0 | 100 | 100 | 89.4 |
| C[C@@H](Oc1cc(-c2cnc3ccccn23)sc1C(N)=O)c1ccccc1Cl [Compound 8] | 0 | 0 | 0 | 0 | 70.2 | 0 | 0 | 0 |
| c1ccc(COc2cccc(-c3ccnc4[nH]ccc34)c2)cc1 [Compound 9] | 0 | 0 | 0 | 0 | 0 | 0 | 0 | 0 |
| Clc1ccc(Nc2ncc(-c3ccccc3)s2)cc1 [Compound 10] | 0 | 0 | 0 | 0 | 0 | 0 | 0 | 0 |
| Nc1ncc2c(-c3ccncc3)c[nH]c2n1 [Compound 11] | 0 | 0 | 0 | 0 | 0 | 0 | 91.7 | 77.1 |
